From patent US20080103152A1, “Novel Diazabicyclononene Derivative” (Actelion Pharmaceuticals Ltd, priority 2004, published 2008) come the findings set out here.

Each structure is given as a SMILES string.

The term IC50 denotes the concentration needed to halve the response being measured.

For assay [1], the system named is double transgenic rats with human renin and human angiotensinogen. In words: Hemodynamic measurements (telemetry method), mean arterial blood pressure. The note with it: for blood pressure decrease (maximal decrease of mean arterial pressure versus control group): hypertensive female double transgenic rats. In kind it is in vivo, rat. The procedure:
Hemodynamic Measurements (Telemetry Method)
Animals—Female double transgenic rats with human renin and human angiotensinogen were purchased from RCC Ltd, Füllingsdorf, Switzerland. All animals were maintained under identical conditions and had free access to normal pelleted rat chow and water. Rats were initially treated with enalapril (1 mg/kg/day) during 2 months. After approximately two weeks following cessation of enalapril treatment the double transgenic rats become hypertensive and reach mean arterial blood pressures in the range of 160-170 mmHg.
Transmitter implantation—The rats were anaesthetised with a mixture of 90 mg/kg Ketamin-HCl (Ketavet, Parke-Davis, Berlin FRG) and 10 mg/kg xylazin (Rompun, Bayer, Leverkusen, FRG) i.p. The pressure transmitter was implanted under aseptic conditions into the peritoneal cavity with the sensing catheter placed in the descending aorta below the renal arteries pointing upstream. The transmitter was sutured to the abdominal musculature and the skin closed.
Telemetry-System—Telemetry units were obtained from Data Sciences (St. Paul, Minn.). […] The tip of the catheter was filled with a viscous gel that prevents blood reflux and was coated with an antithrombogenic film to inhibit thrombus formation. The implants (length=[…], diameter=1.2 cm) weighted 9 g and have a typical battery life of 6 months. A receiver platform (RPC-1, Data Sciences) connected the radio signal to digitized input that was sent to a dedicated personal computer (Compaq, deskpro). Arterial pressures were calibrated by using an input from an ambient-pressure reference (APR-1, Data Sciences). Systolic, mean and diastolic blood pressure was expressed in millimeter of mercury (mmHg).
[…] The effect of the test substance is expressed as maximal decrease of mean arterial pressure (MAP) in the treated group versus the control group.

The target of another assay is T1, recombinant human renin (Homo sapiens, UniProt P00797).
T1 sequence (P00797 67-406): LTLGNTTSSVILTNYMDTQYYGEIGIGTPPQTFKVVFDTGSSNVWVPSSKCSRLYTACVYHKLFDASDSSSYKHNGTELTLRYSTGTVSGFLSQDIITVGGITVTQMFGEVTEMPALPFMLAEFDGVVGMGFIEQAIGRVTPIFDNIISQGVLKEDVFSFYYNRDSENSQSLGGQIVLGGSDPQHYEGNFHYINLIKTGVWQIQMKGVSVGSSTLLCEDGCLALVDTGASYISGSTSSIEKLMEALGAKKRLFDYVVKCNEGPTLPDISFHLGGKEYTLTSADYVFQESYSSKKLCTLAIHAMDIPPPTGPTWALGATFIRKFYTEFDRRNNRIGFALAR
In words: Primary renin inhibition assay: IC50 in buffer, 384 well MTP (Ang I measured by EIA). In kind it is biochemical. Particulars: human tetradecapeptide substrate, 37° C. for 3 h, read-out: IC50 of renin inhibition (Ang I decrease). Here is the method: 1. Enzyme Immuno Assay (EIA) to Estimate Ang I Accumulation and Renin Inhibition
1.1 Preparation of Ang I-BSA Conjugate
1.3 mg (1 μmol) of Ang I [1-10 (Bachem, H-1680)] and 17 mg (0.26 μmol) of BSA (Fluka, 05475) were dissolved in 4 mL of 0.1M phosphate buffer, pH 7.4, after which 2 mL of a 1:100 dilution of glutaraldehyde in H2O (Sigma G-5882) was added dropwise. The mixture was incubated overnight at 4° C., then dialyzed against 2 liters of 0.9% NaCl, twice for 4 h at rt, followed by dialysis against 2 liters of PBS 1× overnight at rt. The solution was then filtered with a Syringe filter, 0.45 μm (Nalgene, Cat. No. 194-2545). The conjugate can be stored in polypropylene tubes in 0.05% sodium azide at 4° C. for at least 12 months.
1.2 Preparation of BSA-Ang I Coated MTP […]
The renin assay was adapted from an assay described before (Fischli W. et al., Hypertension, 1991, 18:22-31) and consists of two steps: in the first step, recombinant human renin is incubated with its substrate (commercial human tetradecapeptide renin substrate) to create the product Angiotensin I (Ang I). In the second step, the accumulated Ang I is measured by an immunological assay (enzyme immuno assay, EIA). […]

Regarding `O=C(C1=C(c2ccc(CCCOc3c(F)ccc(F)c3Cl)cc2)C[C@@H]2CNC[C@H]1N2)N(Cc1cccc(Cl)c1Cl)C1CC1` [Compound (I′), (1R,5S)-7-{4-[3-(2-Chloro-3,6-difluorophenoxy)propyl]phenyl}-3,9-diazabicyclo[3.3.1]non-6-ene-6-carboxylic acid cyclopropyl-(2,3-dichlorobenzyl)amide], the “activity in the animal model (in words)” value in assay [1] (oral gavage, double transgenic rats) is listed as “active”. The entries for the “blood pressure decrease (maximal decrease of mean arterial pressure versus control group)” value in assay [1] (single oral dose of 3 mg/kg) and in assay [1] (single oral dose of 10 mg/kg) were 13 mmHg and 26 mmHg, respectively. Further, the 50% inhibitory concentration (IC50) on recombinant human renin stood at 0.5 nM.
